Patent publication US20260355196A1, “INHIBITORS AND DEGRADERS OF PIP4K PROTEIN” (Larkspur Biosciences, Inc., priority 2023, published 2026)

The compounds below were run against T1, PIP4K2C (Homo sapiens, UniProt Q8TBX8) (assay: HiBiT PIP4K2C degradation assay in MOLT-4 cells (endogenous PIP4K2C C-terminally tagged with HiBiT)). Conditions: 6 hours of incubation time, rather than 24 hours; MOLT-4, top concentration 10 micromolar; read-out: HiBIT-degradation MOLT4 PIP4k2C DC50 (6 hours, marked *).
T1 sequence (Q8TBX8 1-421): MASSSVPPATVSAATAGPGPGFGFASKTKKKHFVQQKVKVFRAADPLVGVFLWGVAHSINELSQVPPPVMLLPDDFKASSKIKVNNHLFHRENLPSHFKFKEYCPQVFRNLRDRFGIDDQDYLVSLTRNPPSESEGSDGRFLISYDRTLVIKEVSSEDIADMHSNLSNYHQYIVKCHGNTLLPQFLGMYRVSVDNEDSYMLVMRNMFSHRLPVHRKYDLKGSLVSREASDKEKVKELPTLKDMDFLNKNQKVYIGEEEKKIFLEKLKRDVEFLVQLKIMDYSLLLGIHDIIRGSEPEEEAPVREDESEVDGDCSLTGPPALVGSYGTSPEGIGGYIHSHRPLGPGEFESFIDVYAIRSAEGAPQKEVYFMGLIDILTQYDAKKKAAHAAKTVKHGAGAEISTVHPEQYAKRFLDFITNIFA
Type: cell-based
Set-up: untagged in primary human PBMCs and monocyte-derived dendritic cells
How it was run: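 Endogenous PIP4K2C was C-terminally HiBiT-tagged by CRISPR-Cas9 in MOLT-4 cells, which were treated with a 10-point, 3-fold dilution series from 10 micromolar in duplicate for 24 or 6 hours at 37 C. Remaining protein was read by HiBiT lytic luminescence, and DC50 came from a Hill fit.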

For O=C1CCC(Nc2ccc(N3CCC(N4CCC(C(=O)N[C@H]5CC[C@H](Nc6ncc(F)c(-c7cccc(-n8ccccc8=O)c7)n6)CC5)CC4)C(F)(F)C3)c(F)c2)C(=O)N1 (stereo partly drawn) [Compound 598, trans-1′-(4-((2,6-dioxopiperidin-3-yl)amino)-2-fluorophenyl)-3′,3′-difluoro-N-(4-((5-fluoro-4-(3-(2-oxopyridin-1(2H)-yl)phenyl)pyrimidin-2-yl)amino)cyclohexyl)-[1,4′-bipiperidine]-4-carboxamide], which DC50 is on record?
The DC50 was less than 500 nM.

Which DC50 does the source give for Cn1nc([C@@H]2CCC(=O)NC2=O)c2ccc(C3CCN(CC4CCN(C(=O)O[C@H]5CC[C@H](Nc6ncc(F)c(-c7cccc(-n8ccccc8=O)c7)n6)CC5)CC4)CC3)cc21 (single isomer, unassigned) [Compound 638] here?
The DC50 was less than 500 nM.

For O=C1CCC(Nc2ccc(N3CCN([C@H]4CC[C@H](NC(=O)[C@H]5CC[C@H](Nc6ncc(F)c(-c7cccc(-c8ccccc8)c7)n6)CC5)CC4)CC3)c(F)c2)C(=O)N1 (stereo partly drawn) [Compound 662, trans-(1r,4R)-4-((4-([1,1′-biphenyl]-3-yl)-5-fluoropyrimidin-2-yl)amino)-N-((1r,4R)-4-(4-(4-((2,6-dioxopiperidin-3-yl)amino)-2-fluorophenyl)piperazin-1-yl)cyclohexyl)cyclohexane-1-carboxamide], which DC50 is on record?
The DC50 was less than 500 nM.

With CN(C(=O)[C@H]1CC[C@H](Nc2ncc(F)c(-c3cccc(-n4ccccc4=O)c3)n2)CC1)[C@H]1CC[C@H](N2CCN(c3ccc(NC4CCC(=O)NC4=O)cc3F)CC2)CC1 (stereo partly drawn) [Compound 488, trans-(1r,4R)—N-((1r,4R)-4-(4-(4-((2,6-dioxopiperidin-3-yl)amino)-2-fluorophenyl)piperazin-1-yl)cyclohexyl)-4-((5-fluoro-4-(3-(2-oxopyridin-1(2H)-yl)phenyl)pyrimidin-2-yl)amino)-N-methylcyclohexane-1-carboxamide] as the compound, how does the DC50 read?
Its DC50 is less than 500 nM.

For O=C1CCC(Nc2ccc(C3CCN(C4CCN(C(=O)O[C@H]5CC[C@H](Nc6ncc(F)c(-c7cccc(-n8ccccc8=O)c7)n6)CC5)CC4(F)F)CC3)c(F)c2)C(=O)N1 (stereo partly drawn) [Compound 648, trans-4-((5-fluoro-4-(3-(2-oxopyridin-1 (2H)-yl)phenyl)pyrimidin-2-yl)amino)cyclohexyl 4-(4-((2,6-dioxopiperidin-3-yl)amino)-2-fluorophenyl)-3′,3′-difluoro-[1,4′-bipiperidine]-1′-carboxylate], which DC50 is on record?
Its DC50 is greater than 5000 nM.

How did the DC50 turn out when O=C1CCC(Nc2ccc(N3CCN([C@H]4CC[C@H](C(=O)N[C@H]5CC[C@H](Nc6ncc(F)c(-c7cccc(N8CCOCC8)c7)n6)CC5)CC4)CC3)c(F)c2)C(=O)N1 (stereo partly drawn) [Compound 605, trans-(1r,4R)-4-(4-(4-((2,6-dioxopiperidin-3-yl)amino)-2-fluorophenyl)piperazin-1-yl)-N-((1r,4R)-4-((5-fluoro-4-(3-morpholinophenyl)pyrimidin-2-yl)amino)cyclohexyl)cyclohexane-1-carboxamide] was run?
Its DC50 is less than 500 nM.

Same assay, conditions: 24 hours incubation, MOLT-4, top concentration 10 micromolar; read-out: HiBIT-degradation MOLT4 PIP4k2C 24 hours DC50

Which DC50 does the source give for O=C1CCC(n2c(=O)oc3cc(N4CCC(CN5CCN(CC(=O)N6CCC(Nc7ncc(F)c(-c8cccc(-n9ccccc9=O)c8)n7)CC6)CC5)CC4)ccc32)C(=O)N1 (centres unmarked) [Compound 378, 3-(6-(4-((4-(2-(4-((5-fluoro-4-(3-(2-oxopyridin-1(2H)-yl)phenyl)pyrimidin-2-yl)amino)piperidin-1-yl)-2-oxoethyl)piperazin-1-yl)methyl)piperidin-1-yl)-2-oxobenzo[d]oxazol-3 (2H)-yl)piperidine-2,6-dione] here?
The DC50 was less than 500 nM.

Which DC50 does the source give for O=C1CCC(n2c(=O)oc3cc(N4CCC(CN5CCC(NC(=O)[C@H]6CCC[C@@H](Nc7ncc(F)c(-c8cccc(-n9ccccc9=O)c8)n7)C6)CC5)CC4)ccc32)C(=O)N1 (relative stereo) [Compound 320, cis-N-(1-((1-(3-(2,6-dioxopiperidin-3-yl)-2-oxo-2,3-dihydrobenzo[d]oxazol-6-yl)piperidin-4-yl)methyl)piperidin-4-yl)-3-((5-fluoro-4-(3-(2-oxopyridin-1(2H)-yl)phenyl)pyrimidin-2-yl)amino)cyclohexane-1-carboxamide] here?
The DC50 was less than 500 nM.
